Assay results published in the Deep4Chem optical property database.
One block for each compound: values may come before it.

Assay: solvent given as SMILES

fluorescence lifetime (in ClCCl): 4.26 ns
SMILES: Fc1ccc(N(c2ccc(F)cc2)c2ccc3c4cccc5c(N(c6ccc(F)cc6)c6ccc(F)cc6)ccc(c6cccc2c63)c54)cc1

fluorescence lifetime (in ClC(Cl)Cl): 0.62 ns
fluorescence lifetime (in ClCCl): 0.53 ns
SMILES: COc1cc2cc(OC)c(-c3ccc([N+](=O)[O-])cc3)cc2cc1-c1ccc([N+](=O)[O-])cc1

fluorescence lifetime (in ClCCl): 7 ns
SMILES: CC(C)(C)c1ccc(-c2nc3c4ccc(-c5cc6ccccc6c6ccccc56)cc4c4cc(-c5cc6ccccc6c6ccccc56)ccc4c3n2-c2ccc(C(C)(C)C)cc2)cc1

fluorescence lifetime (in C1CCCCC1): 9.9 ns
fluorescence lifetime (in CC#N): 1.8 ns
SMILES: COc1ccc2c(c1)C(=O)c1ccccc1-2

fluorescence lifetime (in ClCCl): 1.4 ns
SMILES: C[Si]1(C)c2cc(-c3cccs3)ccc2C=Cc2ccc(-c3cccs3)cc21

fluorescence lifetime (in C1CCOC1): 0.97 ns
fluorescence lifetime (in ClCCl): 1.01 ns
SMILES: CCC(CC)COC1=CC2=C3c4cc(OCC(CC)CC)c(-c5ccccc5)n4[B-](F)(F)[n+]4c3n(c3cc(C(C)(C)C)ccc34)[B-](F)(F)[N+]2=C1c1ccccc1

fluorescence lifetime (in CC1CCCCC1): 1.27 ns
fluorescence lifetime (in CC#N): 1.78 ns
fluorescence lifetime (in CO): 2.03 ns
SMILES: COC(=O)C(NC(=O)OC(C)(C)C)c1ccc2oc(-c3cc(OC)c(OC)cc3OC)nc2c1 (configuration not stated)

fluorescence lifetime (in CCCO): 3.9 ns
SMILES: CCOC(=O)c1ccc2c(c1)sc1c3ccc(C(=O)OCC)cc3n(C)c21

fluorescence lifetime (in ClCCl): 6.2 ns
SMILES: Cc1ccc(N(c2ccccc2)c2ccc3ccc4c(N(c5ccccc5)c5ccc(C)cc5)ccc5ccc2c3c54)cc1

fluorescence lifetime (in ClCCl): 6.1 ns
SMILES: CC(C)(C)c1ccc(-c2nc3c4ccc(-c5c6ccccc6cc6ccccc56)cc4c4cc(-c5c6ccccc6cc6ccccc56)ccc4c3n2-c2ccc(C(C)(C)C)cc2)cc1

The remaining lines, values behind:

SMILES: CC1=[N+]2C(=C(c3ccccc3)c3ccc(/C=C/c4ccc(C(=C(c5ccccc5)c5ccccc5)c5ccccc5)cc4)n3[B-]2(F)F)C=C1
fluorescence lifetime (in C1CCOC1): 5.43 ns

SMILES: CCCCCCCCOc1ccc(C2=C3C(C)=C(C#Cc4ccc(B(c5c(C)cc(C)cc5C)c5c(C)cc(C)cc5C)cc4)C(C)=[N+]3[B-](F)(F)n3c(C)c(C#Cc4ccc(B(c5c(C)cc(C)cc5C)c5c(C)cc(C)cc5C)cc4)c(C)c32)cc1
fluorescence lifetime (in CC#N): 4.37 ns
fluorescence lifetime (in CCCCCC): 5.4 ns
fluorescence lifetime (in ClCCl): 4.39 ns

SMILES: COc1ccc2cc(C#Cc3ccc([N+](=O)[O-])cc3)ccc2c1
fluorescence lifetime (in C1CCOC1): 0.57 ns
fluorescence lifetime (in ClC(Cl)Cl): 0.77 ns
fluorescence lifetime (in ClCCl): 0.32 ns

SMILES: N#Cc1ccc(-n2cccc2)cc1
fluorescence lifetime (in CC#N): 8.2 ns
fluorescence lifetime (in CCCCCC): 2.42 ns
fluorescence lifetime (in CCOCC): 3.8 ns
fluorescence lifetime (in ClCCl): 3.1 ns

SMILES: c1ccc(N2c3ccc4ccccc4c3-c3c4ccccc4cn[n+]3[B-]2(c2ccccc2)c2ccccc2)cc1
fluorescence lifetime (in Cc1ccccc1): 2.56 ns

SMILES: COc1ccc(C2=CC(c3ccccc3)=[N+]3C2=Nc2c(-c4ccc(OC)cc4)cc(-c4ccccc4)n2[B-]3(F)F)cc1
fluorescence lifetime (in Cc1ccccc1): 1.56 ns

SMILES: CN(C)c1ccc(/C=C/C(=C(C#N)C#N)c2ccc3c4c(cccc24)CC3)cc1
fluorescence lifetime (in C1CCOC1): 5.2 ns
fluorescence lifetime (in CC#N): 2.25 ns
fluorescence lifetime (in CC(C)=O): 3.84 ns
fluorescence lifetime (in CCOC(C)=O): 4.98 ns
fluorescence lifetime (in CN(C)C=O): 3.31 ns
fluorescence lifetime (in CO): 2.85 ns
fluorescence lifetime (in Cc1ccccc1): 3.92 ns
fluorescence lifetime (in ClC(Cl)Cl): 4.27 ns

SMILES: Cc1ccc2c(c1)C(c1ccccc1)(c1ccccc1)c1cc(C)ccc1N2c1ccc2c(c1)N(c1ccccc1)c1ccccc1B2c1c(C(C)C)cc(C(C)C)cc1C(C)C
fluorescence lifetime (in Cc1ccccc1): 5.6 ns
fluorescence lifetime (in O=P(c1ccccc1)(c1ccccc1)c1ccc2oc3ccc(P(=O)(c4ccccc4)c4ccccc4)cc3c2c1): 8.7 ns

SMILES: COc1c(-c2ccc(N(C)C)cc2)oc2ccccc2c1=O
fluorescence lifetime (in C1CCCCC1): 0.67 ns
fluorescence lifetime (in C1CCOC1): 2.05 ns
fluorescence lifetime (in CC#N): 2.71 ns
fluorescence lifetime (in CCOC(C)=O): 1.67 ns
fluorescence lifetime (in CCOCC): 0.88 ns

SMILES: c1cc2c3c(c1)-c1ccc4c5c(ccc(c15)B3c1ccc3c5c(ccc-2c15)CC3)CC4
fluorescence lifetime (in Cc1ccccc1): 5.28 ns

SMILES: COc1ccc(-c2c3ccccc3c(C#Cc3ccccc3)c3cc4ccccc4cc23)cc1
fluorescence lifetime (in ClCCl): 9.7 ns

SMILES: CCCCCCCCn1c(=O)c2cc3cc4cc5c(=O)n(CCCCCCCC)c(=O)c5cc4c(C#Cc4ccc(N(c5ccccc5)c5ccccc5)cc4)c3cc2c1=O
fluorescence lifetime (in ClC(Cl)Cl): 4.2 ns

SMILES: N#Cc1c(-n2c3ccccc3c3cc(Br)ccc32)c(C#N)c(-n2c3ccccc3c3cc(Br)ccc32)c(-n2c3ccccc3c3cc(Br)ccc32)c1-n1c2ccccc2c2cc(Br)ccc21
fluorescence lifetime (in Cc1ccccc1): 0.4 ns
